Here are results for one molecule from patent publication US20110294772A1, “USE OF CYCLOSQUARAMIDE COMPOUNDS AS ANTI-TUMOUR AGENTS” (priority 2008, published 2011).

What is called IC50 is the concentration that inhibits the measured activity by half. Low readings indicate greater potency, high ones weaker potency.

For one series, the system named is Granta-519. The series can be described thus: cell viability assay. It counts as cell-based, human. To be noted: Granta-519 B-cell lymphoma (MCL), 48 h, with respect to untreated control cells.
The next series deals with Karpas-45. The series can be described thus: cell viability assay. It counts as cell-based, human. To be noted: Karpas-45 T-cell lymphoma, 72 h, with respect to untreated control cells.
A further series concerns Caki-1 (Renal). The series can be described thus: NCI60 panel IC50. In kind it is cell-based. To be noted: Homo sapiens. Here is the method:
(§1) On the other hand, the values of IC50 were determined in the panel of NCl60 cell lines for compound 10.
(§2) A total of 2 independent experiments were carried out with assays in triplicate for the compound and cell line. All those assays where an IC50 value was not reached in the highest concentration of 1E-05 M are represented by “>1E-05”. In these cases, the standard deviation cannot be calculated and for that reason it is calculated as “-”.

For a further series, the system named is MDA-MB-231 (Breast). Kind of series: NCI60 panel IC50. In kind it is cell-based. The note with it: Homo sapiens. The protocol:
as §1, §2

Another series deals with MCF-7 (Breast). Kind of series: NCI60 panel IC50. It counts as cell-based. The note with it: Homo sapiens, MCF7. The protocol:
as §1, §2

Another series deals with SF-295 (CNS). The series can be described thus: NCI60 panel IC50. To be noted: Homo sapiens. It counts as cell-based. Here is the method:
as §1, §2

In a further series the test system is T47-D (Breast). The series can be described thus: NCI60 panel IC50. The note with it: Homo sapiens, T47D. In kind it is cell-based. Here is the method:
as §1, §2

The test system of the next series is RXF-393 (Renal). The series can be described thus: NCI60 panel IC50. The note with it: Homo sapiens. In kind it is cell-based. The protocol: as §1, §2
Another series has as its system SHP-77 (Lung). Kind of series: NCI60 panel IC50. In kind it is cell-based. The note with it: Homo sapiens, SHP77. The protocol:
as §1, §2

The next series relates to ADR-RE-3 (Breast). Kind of series: NCI60 panel IC50. It counts as cell-based. To be noted: Homo sapiens. Here is the method: as §1, §2
Another series concerns NCI-H460 (Lung). The series can be described thus: NCI60 panel IC50. It counts as cell-based. The note with it: Homo sapiens. Here is the method: as §1, §2
The subject of a further series is TK-10 (Renal). The series can be described thus: NCI60 panel IC50. It counts as cell-based. To be noted: Homo sapiens. The protocol: as §1, §2
A further series concerns SK-MEL-5 (Melanoma). The series can be described thus: NCI60 panel IC50. In kind it is cell-based. To be noted: Homo sapiens. Here is the method:
as §1, §2

For a further series, the system named is MOLT-4 (Leukaemia). The series can be described thus: NCI60 panel IC50. It counts as cell-based. To be noted: Homo sapiens. The protocol:
as §1, §2

A further series has as its system PC-3 (Prostate). The series can be described thus: NCI60 panel IC50. It counts as cell-based. To be noted: Homo sapiens. The protocol: as §1, §2
A further series concerns HCT-116 (Colon). The series can be described thus: NCI60 panel IC50. In kind it is cell-based. To be noted: Homo sapiens. The protocol: as §1, §2
The test system of another series is EKVX (Lung). Kind of series: NCI60 panel IC50. In kind it is cell-based. The note with it: Homo sapiens. Here is the method:
as §1, §2

The test system of a further series is SF539 (Astrocytoma). Kind of series: NCI60 panel IC50. It counts as cell-based. The note with it: Homo sapiens, SF-539. Here is the method:
as §1, §2

The next series relates to SK-BR-3 (Breast). Kind of series: NCI60 panel IC50. It counts as cell-based. To be noted: Homo sapiens. Here is the method:
as §1, §2

The test system of another series is OVCAR-3 (Ovarian). Kind of series: NCI60 panel IC50. In kind it is cell-based. The note with it: Homo sapiens. The protocol: as §1, §2
A further series deals with SK-OV-3 (Ovarian). The series can be described thus: NCI60 panel IC50. In kind it is cell-based. The note with it: Homo sapiens. Here is the method: as §1, §2

Regarding `CN1CCCNc2c(c(=O)c2=O)NCCCN(C)CCCNc2c(c(=O)c2=O)NCCCN(C)CCCNc2c(c(=O)c2=O)NCCCN(C)CCCNc2c(c(=O)c2=O)NCCCN(C)CCCNc2c(c(=O)c2=O)NCCC1` [Compound 10], the figures for the “% Cell viability” value in the series with Granta-519 and in the series with Karpas-45 were 58% and 13%, respectively. Besides, the IC50 with Caki-1 (Renal) amounted to 5750 nM; in the series with MDA-MB-231 (Breast), 2320 nM; with MCF-7 (Breast), 4670 nM; in the series with SF-295 (CNS), 5520 nM; in the series with T47-D (Breast), 1890 nM; in the series on RXF-393 (Renal), 2770 nM. Also, the 50% inhibitory concentration (IC50) in the series on SHP-77 (Lung) stood at 2900 nM; with ADR-RE-3 (Breast) it was 1620 nM; with NCI-H460 (Lung), 6880 nM; in the series on TK-10 (Renal), 3360 nM; in the series with SK-MEL-5 (Melanoma) it was 2750 nM; with MOLT-4 (Leukaemia) it was 1360 nM. Moreover, the IC50 came out at 2460 nM with PC-3 (Prostate); 2980 nM in the series with HCT-116 (Colon); 2750 nM in the series on EKVX (Lung); 3520 nM with SF539 (Astrocytoma); 308 nM in the series with SK-BR-3 (Breast); 5070 nM in the series on OVCAR-3 (Ovarian). This molecule also yielded an IC50 in the series with SK-OV-3 (Ovarian) of 3100 nM.
